From US20240384268A1, “Oligonucleotides” (Hudson Institute of Medical Research, priority 2021, published 2024)

molecular target: cGAS (Homo sapiens, UniProt Q8N884); experiment: ISD70-driven IP-10 (and IFN-β) production in THP-1 cells, ELISA; type: cell-based; parameters: endogenous in cells; host or cells: THP-1 (undifferentiated); details: MOE-modified ASO at 100 nM; averaged IP-10 levels relative to ISD70 condition
Sequence (Q8N884 whole entry): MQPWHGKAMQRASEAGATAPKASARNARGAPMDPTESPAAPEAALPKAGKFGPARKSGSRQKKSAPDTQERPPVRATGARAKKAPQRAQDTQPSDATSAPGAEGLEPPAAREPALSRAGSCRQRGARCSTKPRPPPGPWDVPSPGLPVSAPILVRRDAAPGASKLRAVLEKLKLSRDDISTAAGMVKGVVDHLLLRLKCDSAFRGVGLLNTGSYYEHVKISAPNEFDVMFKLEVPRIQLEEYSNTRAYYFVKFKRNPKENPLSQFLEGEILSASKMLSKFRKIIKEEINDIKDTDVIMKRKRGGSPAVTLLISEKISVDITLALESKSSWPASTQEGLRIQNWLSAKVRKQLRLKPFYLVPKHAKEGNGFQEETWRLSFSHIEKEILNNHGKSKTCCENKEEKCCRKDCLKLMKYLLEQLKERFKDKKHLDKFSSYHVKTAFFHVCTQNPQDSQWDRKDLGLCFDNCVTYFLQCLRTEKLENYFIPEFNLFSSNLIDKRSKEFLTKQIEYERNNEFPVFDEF

Row | Sequence | cGAS 100 nM
1 | ACTGACTGTCTTGAGGGTTC (antisense; 2'-MOE modified, pattern not given here) [MB21D1-1483 MOE] | 0.221
2 | ATGTCCCCTGTTGACTGGTC (antisense; 2'-MOE modified, pattern not given here) [HPRT-489 MOE] | 0.574
3 | GAGGTCTTGGCTTCGTGGAG (antisense; 2'-MOE modified, pattern not given here) [MB21D1-523 MOE] | 0.380
4 | GATGGCCTCCCATCTCCTTC (antisense; 2'-MOE modified, pattern not given here) [HPRT-329 MOE] | 0.687
5 | TTCTGCAGCTTCCTTGTCCT (antisense; 2'-MOE modified, pattern not given here) [CTNN2B-2136 MOE] | 0.821
6 | TAGTCAAGGGCATATCCTAC (antisense; 2'-MOE modified, pattern not given here) [HPRT-732 MOE] | 0.848
7 | GCCGCTTTTCTGTCTGGTTC (antisense; 2'-MOE modified, pattern not given here) [CTNN2B-311 MOE] | 0.401
8 | TTGCCATGCTGGCTCGGACT (antisense; 2'-MOE modified, pattern not given here) [CAMSAP1-2584 MOE] | 0.518
9 | TGTGATGGCCTCCCATCTCC (antisense; 2'-MOE modified, pattern not given here) [HPRT-332 MOE] | 0.438
10 | GGTGGTCCACAACCCCTTTC (antisense; 2'-MOE modified, pattern not given here) [MB21D1-697 MOE] | 0.292
11 | ACAACCCCTTTCACCATCCC (antisense; 2'-MOE modified, pattern not given here) [MB21D1-689 MOE] | 0.658
12 | ACCCACTTGGCAGACCATCA (antisense; 2'-MOE modified, pattern not given here) [CTNN2B-1575 MOE] | 0.571
13 | ATGTCCCGCCACTGGATGCT (antisense; 2'-MOE modified, pattern not given here) [EGFR-727 MOE] | 0.549
14 | ATCCAACACTTCGTGGGGTC (antisense; 2'-MOE modified, pattern not given here) [HPRT-668 MOE] | 0.744
15 | TCGCACTTCAGTCTGAGCAG (antisense; 2'-MOE modified, pattern not given here) [MB21D1-719 MOE] | 0.305
16 | CTTACTTTCCGAGGTGTCCA (antisense; 2'-MOE modified, pattern not given here) [CAMSAP1-1739 MOE] | 0.473
17 | GTGTCCTTGCACGTGGCTTC (antisense; 2'-MOE modified, pattern not given here) [EGFR-1015 MOE] | 0.384
18 | TGTCCTTGCACGTGGCTTCG (antisense; 2'-MOE modified, pattern not given here) [EGFR-1014 MOE] | 0.515
19 | TTGCACACTTCGTACCCAAA (antisense; 2'-MOE modified, pattern not given here) [CAMSAP1-4915 MOE] | 0.392
20 | TGTCTTCATCGGCCCTGCCT (antisense; 2'-MOE modified, pattern not given here) [CAMSAP1-2112 MOE] | 0.557

Row | Sequence | cGAS 100 nM
21 | CTCTTGAAGCATCGTATCAC (antisense; 2'-MOE modified, pattern not given here) [CTNN2B-3648 MOE] | 0.791
22 | TTGGCTCGGCTTGCCTACTT (antisense; 2'-MOE modified, pattern not given here) [CAMSAP1-5594 MOE] | 0.295
23 | TAGGCACTTTGCCTCCTTCT (antisense; 2'-MOE modified, pattern not given here) [EGFR-2859 MOE] | 0.378
24 | ACAGTGTTGAGATACTCGGG (antisense; 2'-MOE modified, pattern not given here) [EGFR-3652 MOE] | 0.297
25 | CGTGTCTGGAAGCTTCCTTT (antisense; 2'-MOE modified, pattern not given here) [CTNN2B-808 MOE] | 0.426
26 | GGCATCCACCACGTCGTCCA (antisense; 2'-MOE modified, pattern not given here) [EGFR-3266 MOE] | 0.478
27 | CACCCACTTGGCAGACCATC (antisense; 2'-MOE modified, pattern not given here) [CTNN2B-1576 MOE] | 0.658
28 | GGAGCTTCGAGGCCCCAGGC (MOE modified, pattern not given here) [MB21D1-616 MOE] | 0.117
29 | GAACCACGTCTGCTCTAACA (antisense; 2'-MOE modified, pattern not given here) [CAMSAP1-1635 MOE] | 0.518
30 | AATCCGCCCAAAGGGAACTG (antisense; 2'-MOE modified, pattern not given here) [HPRT-1027 MOE] | 0.494
31 | CAGATAGCACCTTCAGCACT (antisense; 2'-MOE modified, pattern not given here) [CTNN2B-1294 MOE] | 0.388
32 | TCCAACACTTCGTGGGGTCC (antisense; 2'-MOE modified, pattern not given here) [HPRT-667 MOE] | 0.799
33 | CAAGGCCCTTCGCACTTCTT (antisense; 2'-MOE modified, pattern not given here) [EGFR-1225 MOE] | 0.490
34 | GCTTCAGGCGCTGCCTTGCC (antisense; 2'-MOE modified, pattern not given here) [CAMSAP1-2709 MOE] | 0.510
35 | GGTCCATACCCAAGGCATCC (antisense; 2'-MOE modified, pattern not given here) [CTNN2B-2446 MOE] | 0.531
36 | GCGTATTATAGCCGATTAAC (antisense; 2'-MOE modified, pattern not given here) [NC1 2′MOE] | 0.504
37 | GATGCTCCTCGGTCTCCCTT (antisense; 2'-MOE modified, pattern not given here) [CAMSAP1-1850 MOE] | 0.413
38 | ATGTGATGGCCTCCCATCTC (antisense; 2'-MOE modified, pattern not given here) [HPRT-333 MOE] | 0.439
39 | GGTGTCCTTGCACGTGGCTT (antisense; 2'-MOE modified, pattern not given here) [EGFR-1016 MOE] | 0.315
40 | GCGACTATACGCGCAATATG (antisense; 2'-MOE modified, pattern not given here) [NC5 2′MOE] | 0.720

Row | Sequence | cGAS 100 nM
41 | GCGGAGGTCTTGGCTTCGTG (antisense; 2'-MOE modified, pattern not given here) [MB21D1-526 MOE] | 0.346
42 | CTGTGATCTTGACATGCTGC (antisense; 2'-MOE modified, pattern not given here) [EGFR-2790 MOE] | 0.180
43 | GAGTCTCTGGAGCTTCCTCT (antisense; 2'-MOE modified, pattern not given here) [CAMSAP1-2456 MOE] | 0.250
44 | AGGTCTTGGCTTCGTGGAGC (antisense; 2'-MOE modified, pattern not given here) [MB21D1-522 MOE] | 0.118
45 | TCAAAGGACTGAGGAAAGGG (antisense; 2'-MOE modified, pattern not given here) [CAMSAP1-6273 MOE] | 0.634
46 | CAATGTGATGGCCTCCCATC (antisense; 2'-MOE modified, pattern not given here) [HPRT-335 MOE] | 0.362
47 | GGAGGTCTTGGCTTCGTGGA (antisense; 2'-MOE modified, pattern not given here) [MB21D1-524 MOE] | 0.450
48 | GTCTTGGCTTCGTGGAGCAG (antisense; 2'-MOE modified, pattern not given here) [MB21D1-520 MOE] | 0.291
49 | CAACACTTCGTGGGGTCCTT (antisense; 2'-MOE modified, pattern not given here) [HPRT-665 MOE] | 0.686
50 | GGGAAAGGTTATGCAAGGTC (antisense; 2'-MOE modified, pattern not given here) [CTNN2B-916 MOE] | 0.156
51 | AACACTTCGTGGGGTCCTTT (antisense; 2'-MOE modified, pattern not given here) [HPRT-664 MOE] | 0.615
52 | GTGTCTTCATCGGCCCTGCC (antisense; 2'-MOE modified, pattern not given here) [CAMSAP1-2113 MOE] | 0.606
53 | AGATCTGGCAGCCCATCAAC (antisense; 2'-MOE modified, pattern not given here) [CTNN2B-2516 MOE] | 0.677
54 | GGTGGTGGCCACCCATCTCA (antisense; 2'-MOE modified, pattern not given here) [CTNN2B-2479 MOE] | 0.456
55 | CCAACACTTCGTGGGGTCCT (antisense; 2'-MOE modified, pattern not given here) [HPRT-666 MOE] | 0.557
56 | GGAGATTTCAGAGCAGCTTC (antisense; 2'-MOE modified, pattern not given here) [EGFR-4885 MOE] | 0.466
57 | GTCCACATCCTGTGGCTCGT (antisense; 2'-MOE modified, pattern not given here) [CAMSAP1-2906 MOE] | 0.455
58 | GTCCTTGCACGTGGCTTCGT (antisense; 2'-MOE modified, pattern not given here) [EGFR-1013 MOE] | 0.374
59 | GCGTGTCTGGAAGCTTCCTT (antisense; 2'-MOE modified, pattern not given here) [CTNN2B-809 MOE] | 0.241
